The text below walks through data of ChEMBL document CHEMBL3792337, “Cardiac Glycosides from the Seeds of Thevetia peruviana” (J Nat Prod, 2016).

Test [1] is described as follows: Cytotoxicity against human LO2 cells after 48 hrs by MTT assay. It is filed as cell-based. The note with it: L02, 48 h. Background: Tetrazolium assays rely on reduction of a dye to a coloured formazan, in cell work by metabolically active cells.
The next test concerns SW1990. The test can be described thus: Cytotoxicity against human SW1990 cells after 48 hrs by MTT assay. It is filed as functional, cell-based. The note with it: SW1990, 48 h.
A short description of test [2]: Cytotoxicity against human P15 cells after 48 hrs by MTT assay. The note with it: P15, 48 h. It is filed as functional, cell-based.
Test [3] in a line: Cytotoxicity against human MGC803 cells after 48 hrs by MTT assay. It is filed as functional, cell-based. The note with it: MGC-803, 48 h.

Some results are limits rather than exact numbers.

For the molecule `CO[C@H]1[C@H](O)[C@H](O[C@H]2CC[C@@]3(C)[C@@H](CC[C@@H]4[C@@H]3CC[C@]3(C)[C@@H](C5=CC(=O)OC5)CC[C@]43O)C2)O[C@@H](C)[C@@H]1O[C@H]1O[C@@H](CO)[C@H](O)[C@@H](O)[C@@H]1O`, the IC50 (as a rule, the concentration at which inhibition is half-maximal) in test [1] was over 10 µM; in the test on SW1990, 4.54 µM; in test [2], 2.68 µM; in test [3], 3.42 µM.
On the same counts, the results for `CO[C@H]1[C@H](OC(C)=O)[C@H](O[C@H]2CC[C@@]3(C)[C@H](CC[C@@H]4[C@@H]3CC[C@]3(C)[C@@H](C5=CC(=O)OC5)CC[C@]43O)C2)O[C@@H](C)[C@@H]1O[C@H]1O[C@@H](CO[C@@H]2O[C@H](CO)[C@@H](O)[C@H](O)[C@H]2O)[C@H](O)[C@@H](O)[C@@H]1O` are over 10 µM, 5.82 µM, 4.75 µM and 7.04 µM.
In the case of `CO[C@H]1[C@H](O)[C@H](O[C@H]2CC[C@@]3(C)[C@H](CC[C@@H]4[C@@H]3CC[C@]3(C)[C@@H](C5=CC(=O)OC5)CC[C@]43O)C2)O[C@@H](C)[C@@H]1O[C@H]1O[C@@H](CO)[C@H](O)[C@@H](O)[C@@H]1O`, the half-inhibitory concentration (IC50) in test [1] is over 10 µM; in the test on SW1990, 0.62 µM; in test [2], 0.4 µM; in test [3], 0.42 µM.
For `CO[C@H]1[C@H](O)[C@H](O[C@H]2CC[C@@]3(C)[C@H](CC[C@@H]4[C@@H]3CC[C@]3(C)[C@@H](C5=CC(=O)OC5)CC[C@]43O)C2)O[C@@H](C)[C@@H]1O[C@H]1O[C@@H](CO[C@@H]2O[C@H](CO)[C@@H](O)[C@H](O)[C@H]2O)[C@H](O)[C@@H](O)[C@@H]1O`, in that order: over 10 µM, 4.56 µM, 3.97 µM and over 10 µM.
For `CO[C@H]1[C@H](O)[C@H](O[C@H]2CC[C@@]3(O)[C@H](CC[C@@H]4[C@@H]3CC[C@]3(C)[C@@H](C5=CC(=O)OC5)CC[C@]43O)C2)O[C@@H](C)[C@@H]1O[C@H]1O[C@@H](CO)[C@H](O)[C@@H](O)[C@@H]1O`, in that order: over 10 µM, over 10 µM, over 10 µM and over 10 µM.
For `CO[C@@H]1[C@@H](O)[C@@H](O[C@@H]2CC[C@]3(CO)[C@@H](CC[C@H]4[C@H]3CC[C@@]3(C)[C@H](C5=CC(=O)OC5)CC[C@@]43O)C2)O[C@H](C)[C@H]1O[C@@H]1O[C@H](CO)[C@@H](O)[C@H](O)[C@H]1O`, in that order: over 10 µM, 0.13 µM, 0.12 µM and 0.32 µM.
As to `CO[C@H]1[C@H](O)[C@H](O[C@H]2CC[C@H]3[C@H](CC[C@@H]4[C@@H]3CC[C@]3(C)[C@@H](C5=CC(=O)OC5)CC[C@]43O)C2)O[C@@H](C)[C@@H]1O[C@H]1O[C@@H](CO)[C@H](O)[C@@H](O)[C@@H]1O`, the half-inhibitory concentration (IC50) in test [1] is over 10 µM; with SW1990 it was 8.1 µM; in test [2], 3.35 µM; in test [3], over 10 µM.
For `CO[C@@H]1[C@@H](O)[C@@H](O[C@@H]2CC[C@]3(C=O)[C@@H](CC[C@H]4[C@H]3CC[C@@]3(C)[C@H](C5=CC(=O)OC5)CC[C@@]43O)C2)O[C@H](C)[C@H]1O[C@@H]1O[C@H](CO)[C@@H](O)[C@H](O)[C@H]1O`, the concentration for half-maximal inhibition (IC50) in test [1] was over 10 µM; in the test with SW1990 it was 0.64 µM; in test [2], 1.46 µM; in test [3] it was 5.32 µM.
For `CO[C@H]1[C@H](OC(C)=O)[C@H](O[C@@H]2CC[C@]3(C=O)[C@@H](CC[C@H]4[C@H]3CC[C@@]3(C)[C@H](C5=CC(=O)OC5)CC[C@@]43O)C2)O[C@@H](C)[C@@H]1O[C@H]1O[C@@H](CO)[C@H](O)[C@@H](O)[C@@H]1O`, in that order: over 10 µM, 0.97 µM, 0.59 µM and 1.23 µM.
For `CO[C@@H]1[C@H](O)[C@@H](O[C@@H]2CC[C@]3(CO)[C@@H](CC[C@H]4[C@H]3CC[C@@]3(C)[C@H](C5=CC(=O)OC5)CC[C@@]43O)C2)O[C@H](C)[C@H]1O[C@@H]1O[C@H](CO)[C@@H](O)[C@H](O)[C@H]1O`, in that order: over 10 µM, 2.14 µM, 4.91 µM and 5.75 µM.
For `CO[C@H]1[C@H](OC(C)=O)[C@H](O[C@H]2CC[C@@]3(C)[C@@H](CC[C@@H]4[C@@H]3CC[C@]3(C)[C@@H](C5=CC(=O)OC5)CC[C@]43O)C2)O[C@@H](C)[C@@H]1O[C@H]1O[C@@H](CO[C@@H]2O[C@H](CO)[C@@H](O)[C@H](O)[C@H]2O)[C@H](O)[C@@H](O)[C@@H]1O`, in that order: over 10 µM, over 10 µM, over 10 µM and 10 µM.
In the case of `CO[C@H]1[C@H](O)[C@H](O[C@H]2CC[C@H]3[C@H](CC[C@@H]4[C@@H]3CC[C@]3(C)[C@@H](C5=CC(=O)OC5)CC[C@]43O)C2)O[C@@H](C)[C@@H]1O[C@@H]1O[C@H](CO[C@@H]2O[C@H](CO)[C@@H](O)[C@H](O)[C@H]2O)[C@@H](O)[C@H](O)[C@H]1O`, the IC50 in test [1] is over 10 µM; with SW1990 it was 3.13 µM; in test [2], over 10 µM; in test [3], 8.18 µM.
For `CO[C@H]1[C@H](O)[C@H](O[C@@H]2CC[C@]3(C(=O)O)[C@@H](CC[C@H]4[C@H]3CC[C@@]3(C)[C@H](C5=CC(=O)OC5)CC[C@@]43O)C2)O[C@@H](C)[C@@H]1O[C@H]1O[C@@H](CO[C@@H]2O[C@H](CO)[C@@H](O)[C@H](O)[C@H]2O)[C@H](O)[C@@H](O)[C@@H]1O`, the half-inhibitory concentration (IC50) (in test [1]; in the test with SW1990; in test [2]; in test [3]) was over 10 µM each time.
On to `CO[C@H]1[C@@H](O)[C@H](O[C@H]2CC[C@@]3(C)[C@H](CC[C@@H]4[C@@H]3CC[C@]3(C)[C@@H](C5=CC(=O)OC5)CC[C@]43O)C2)O[C@@H](C)[C@@H]1O[C@H]1O[C@@H](CO[C@@H]2O[C@H](CO)[C@@H](O)[C@H](O)[C@H]2O)[C@H](O)[C@@H](O)[C@@H]1O`, for which the IC50 in test [1] was over 10 µM; in the test on SW1990, 7.28 µM; in test [2] it was 6.02 µM; in test [3] it was 1.93 µM.
On the same counts, the results for `CO[C@H]1[C@H](O)[C@H](O[C@H]2CC[C@@]3(C)[C@@H](CC[C@@H]4[C@@H]3CC[C@]3(C)[C@@H](C5=CC(=O)OC5)CC[C@]43O)C2)O[C@@H](C)[C@@H]1O[C@H]1O[C@@H](CO[C@@H]2O[C@H](CO)[C@@H](O)[C@H](O)[C@H]2O)[C@H](O)[C@@H](O)[C@@H]1O` are over 10 µM, over 10 µM, 10 µM and 8.32 µM.
